In patent US11174267B2, “Spiroindolinones and therapeutic uses thereof” (The Regents of the University of California, priority 2015, dated 2021):
Where two headings read alike, the source gives them in different places.

Experiments:
[1] = Solubility limit in the checkerboard assay; assay type: physicochemical; settings: checkerboard assay medium
Source text: In all of the strains tested, the FIC index was below 0.5, fitting the classical definition of synergy.

[2] = tested on: resistant clinical isolates of C. albicans; assay: EC50 against selected resistant clinical isolates with fluconazole; assay type: cell-based; settings: Candida albicans, fluconazole 64 μg/mL
Procedure: C. albicans was grown in SC medium overnight and then diluted to an effective OD600 of 0.0625. Serial ten-fold dilutions of the test compounds (0.15-1500 μM) were prepared in DMSO in 1.5 mL Eppendorf tubes. […] The plates were incubated in a rotary shaker/incubator at 30° C. for 16 h. The contents of each well was resuspended with a micropipettor and a 20 μL aliquot was added to a polystyrene cuvette and diluted with 680 μL of deionized water. The suspension was triturated again immediately before measuring the absorbance at 600 nm (OD600) for cell densities. EC50 values were determined by fitting to the Hill equation using the Excel-based tool ED50PLUS v1.0 (Mario H. Vargas) or using Mathematica. Similar procedures were used for Candida glabrata and Cryptococcus neoformans.
(Flowers, S. A., et al. Eukaryotic Cell 2012, 11, 1289-1299.) The strains grow at dramatically different rates.

Cc1c(Cl)ccc2c1NC(=O)[C@@]21[C@H]2C(=O)N(c3ccccc3)C(=O)[C@H]2[C@H]2CN(C(=O)OCc3ccccc3)CCN21 (racemic) [Compound 25, (±)-benzyl (3R,3a′R,3b'S,9a'S)-6-chloro-7-methyl-1′,2,3′-trioxo-2′-phenyl-2′,3′,3a′,3b′,4′,6′,7′,9a′-octahydrospiro[indoline-3,9′-pyrrolo[3′,4′:3,4]pyrrolo[1,2-a]pyrazine]-5′(1′H)-carboxylate]
solubility [1]: 30 to 300 µM
EC50 ([2]; read-out: Potency Cpd 25 EC50, clinical isolate 17): 5 nM
EC50 ([2]; read-out: Potency Cpd 25 EC50, clinical isolate 23): 53 nM
EC50 ([2]; read-out: Potency Cpd 25 EC50, clinical isolate 26): 2 nM
EC50 ([2]; read-out: Potency Cpd 25 EC50, clinical isolate 33): 11 nM
EC50 ([2]; read-out: Potency Cpd 25 EC50, clinical isolate 36): 5 nM
EC50 ([2]; read-out: Potency Cpd 25 EC50, clinical isolate 45): 16 nM
